Source: US20260272878A1, “ADAR1 INHIBITORS AND USES THEREOF” (THE WISTAR INSTITUTE OF ANATOMY AND BIOLOGY, priority 2023, published 2026)
Entries after “also recorded” stand apart in the source; their conditions may differ.

How the values were obtained:
ADAR2 = biological target: T1, ADAR2 (Homo sapiens, UniProt P78563); test: In vitro editing assay, ADAR2; assay type: biochemical; conditions: ADAR2 mediated A-to-I editing in vitro
T1 sequence (P78563 1-741): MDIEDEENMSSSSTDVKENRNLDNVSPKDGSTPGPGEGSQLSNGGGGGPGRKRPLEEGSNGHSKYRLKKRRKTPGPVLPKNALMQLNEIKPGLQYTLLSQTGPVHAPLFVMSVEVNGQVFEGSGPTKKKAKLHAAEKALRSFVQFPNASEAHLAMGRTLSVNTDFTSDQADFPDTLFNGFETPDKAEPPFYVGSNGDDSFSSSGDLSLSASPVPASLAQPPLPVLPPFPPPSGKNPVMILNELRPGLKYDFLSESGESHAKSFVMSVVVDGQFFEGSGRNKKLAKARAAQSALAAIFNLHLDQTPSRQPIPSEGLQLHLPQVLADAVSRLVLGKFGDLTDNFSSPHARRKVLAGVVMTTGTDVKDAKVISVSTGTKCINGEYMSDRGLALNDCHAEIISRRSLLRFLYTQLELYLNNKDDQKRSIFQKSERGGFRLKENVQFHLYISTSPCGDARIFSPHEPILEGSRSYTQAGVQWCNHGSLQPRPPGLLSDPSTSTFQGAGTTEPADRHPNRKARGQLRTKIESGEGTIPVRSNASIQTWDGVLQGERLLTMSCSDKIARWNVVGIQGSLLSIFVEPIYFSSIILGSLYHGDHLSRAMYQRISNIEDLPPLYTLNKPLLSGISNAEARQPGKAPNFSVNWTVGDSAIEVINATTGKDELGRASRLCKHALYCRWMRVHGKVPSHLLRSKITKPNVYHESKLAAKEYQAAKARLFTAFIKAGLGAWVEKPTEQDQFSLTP

ADAR1p110 = biological target: T2, ADAR1p110 (Homo sapiens, UniProt P55265); test: In vitro editing assay with recombinant ADAR1p110 and synthetic dsRNA; assay type: biochemical; conditions: for IC50: ADAR1p110, dose-dependent in vitro editing assay; for Inhibition of ADAR1p110 editing: in vitro editing assay, result in words
T2 construct: HAT (N); made in house; host or cells: Sf9 cells (baculovirus)
T2 sequence (P55265 1-931 isoform P55265-5): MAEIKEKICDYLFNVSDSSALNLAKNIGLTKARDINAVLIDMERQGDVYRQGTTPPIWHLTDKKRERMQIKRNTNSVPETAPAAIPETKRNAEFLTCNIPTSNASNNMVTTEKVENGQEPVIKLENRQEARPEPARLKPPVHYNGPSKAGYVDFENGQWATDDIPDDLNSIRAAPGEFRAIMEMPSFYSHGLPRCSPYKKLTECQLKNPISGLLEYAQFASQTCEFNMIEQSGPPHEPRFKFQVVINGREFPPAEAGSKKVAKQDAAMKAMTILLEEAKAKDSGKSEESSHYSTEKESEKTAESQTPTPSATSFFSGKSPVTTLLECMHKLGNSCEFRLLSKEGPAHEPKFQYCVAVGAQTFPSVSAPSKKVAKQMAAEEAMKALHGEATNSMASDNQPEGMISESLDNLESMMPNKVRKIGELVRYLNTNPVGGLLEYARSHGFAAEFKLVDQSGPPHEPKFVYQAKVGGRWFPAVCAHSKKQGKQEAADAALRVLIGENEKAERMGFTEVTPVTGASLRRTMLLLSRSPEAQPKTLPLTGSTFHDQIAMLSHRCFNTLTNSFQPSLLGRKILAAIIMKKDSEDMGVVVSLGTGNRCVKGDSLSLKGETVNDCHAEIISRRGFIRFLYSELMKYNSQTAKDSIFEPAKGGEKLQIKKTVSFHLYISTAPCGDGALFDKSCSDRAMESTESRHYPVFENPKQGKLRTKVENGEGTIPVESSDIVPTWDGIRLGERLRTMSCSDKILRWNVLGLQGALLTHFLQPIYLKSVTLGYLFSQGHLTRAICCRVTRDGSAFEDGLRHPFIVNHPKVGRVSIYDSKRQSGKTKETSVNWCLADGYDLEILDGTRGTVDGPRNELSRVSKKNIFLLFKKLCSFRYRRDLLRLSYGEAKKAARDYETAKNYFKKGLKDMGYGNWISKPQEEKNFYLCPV
Procedure: In vitro editing assay using purified HAT-ADAR1p110 and a synthetic dsRNA was conducted at varying concentrations of ADAR1i-124. The editing efficiency was determined by the guanosine peak replacing the adenosine peak of cDNA sequencing chromatograms.
The in vitro editing reaction mixture, containing 5 nM of telomere RNA:RNA duplex substrates and 75 nM of HAT-ADAR1p110-WT, FLAG-ADAR1p110-WT, or HA-ADAR1p110-EAA protein, was incubated at 37° C. for 2 h in in vitro editing buffer I (20 mM HEPES-KOH PH 7.5, 100 mM NaCl, 0.01% NP-40, 5% glycerol, 1 mM DTT). For editing of RNA:DNA hybrid substrates, in vitro editing buffer II (20 mM HEPES-KOH PH 7.5, 20 mM NaCl, 0.01% NP-40, 5% glycerol, 1 mM DTT) was used. Edited RNA or DNA strands were purified using Dynabeads MyOne Streptavidin C1 (Thermo Fisher Scientific). To remove opposite RNA or DNA strands, rNase H (NEB) or TURBO dNase (Thermo Fisher Scientific) was used, respectively. For sequencing of edited substrates, reverse transcription-PCR was carried out for RNA strands, while PCR was carried out for DNA strands. RT reactions were carried out using SuperScript III Reverse Transcriptase (Thermo Fisher Scientific), and PCR reactions were performed using Platinum Taq DNA polymerase (Thermo Fisher Scientific). PCR products were sequenced using a specific sequencing primer, and the ratio of A and G peaks in the chromatograms were analyzed by CodonCode Aligner (CodonCode Corporation).
In a previous study, the 54 compounds identified in the high-throughput screen were further tested in the in vitro editing assay described in Examples 2 and 3. The in vitro editing reaction mixture, containing 5 nM of telomere RNA:RNA duplex substrates and 75 nM of HAT-ADAR1p110-WT, FLAG-ADAR1p110-WT, or HA-ADAR1p110-EAA protein, was incubated at 37° C. for 2 h in in vitro editing buffer I (20 mM HEPES-KOH PH 7.5, 100 mM NaCl, 0.01% NP-40, 5% glycerol, 1 mM DTT) with 10 microM test compound. For editing of RNA:DNA hybrid substrates, in vitro editing buffer II (20 mM HEPES-KOH PH 7.5, 20 mM NaCl, 0.01% NP-40, 5% glycerol, 1 mM DTT) was used. Edited RNA or DNA strands were purified using Dynabeads MyOne Streptavidin C1 (Thermo Fisher Scientific). To remove opposite RNA or DNA strands, Rnase H (NEB) or TuRBO Dnase (Thermo Fisher Scientific) was used, respectively. For sequencing of edited substrates, reverse transcription-PCR was carried out for RNA strands, while PCR was carried out for DNA strands. RT reactions were carried out using SuperScript III
Reverse Transcriptase (Thermo Fisher Scientific), and PCR reactions were performed using Platinum Taq DNA polymerase (Thermo Fisher Scientific). PCR products were sequenced using a specific sequencing primer, and the ratio of A and G peaks in the chromatograms were analyzed by CodonCode Aligner (CodonCode Corporation).

| SMILES | ADAR2 inhibitory activity (ADAR2) | IC50 (ADAR1p110) | Inhibition of ADAR1p110 editing (ADAR1p110) | Substrate preference of editing inhibition (matched vs A-C mismatched dsRNA) (ADAR1p110; recombinant ADAR1p110, matched and mismatched dsRNA substrates, 10 microM test compound) |
| --- | --- | --- | --- | --- |
| N#Cc1ccc(NC(=O)c2sc3ccccc3c2Cl)cc1 [ADAR1i-13, 3-chloro-N-(4-cyanophenyl)-1-benzothiophene-2-carboxamide] | No ADAR2 inhibitory activity was detected; also recorded: did not inhibit ADAR2 mediated A-to-I editing in vitro | 10 to 20 µM | inhibited ADAR1p110 editing of all three substrates tested, including the DNA:RNA hybrid substrate | preferentially inhibited matched adenosines |
| N#Cc1ccccc1NC(=O)c1sc2ccccc2c1Cl [ADAR1i-120] | No ADAR2 inhibitory activity was detected | 10 to 20 µM | ADAR1 inhibitory activities |  |
| N#Cc1ccc(NC(=O)c2c(Cl)c3ccccc3n2CO)cc1 [ADAR1i-124] | No ADAR2 inhibitory activity was detected; also recorded: did not inhibit ADAR2 mediated A-to-I editing in vitro; also recorded: No ADAR2 inhibition detected | 10 to 20 µM | ADAR1 inhibitory activities; also recorded: inhibited both ADAR1p150 and ADAR1p-110 |  |
